Patent US20140187556A1, “ANTI-AMYLOID COMPOUNDS AND METHODS” (Treventis Corporation, priority 2011, published 2014)

What was measured:
[1] = In vivo brain/plasma ratio determination in CD-1 mice; conditions: for Mean brain/plasma ratio: 2 hours; for maximum brain/plasma ratio: day 5, once daily i.p. dosing
Description: Five groups of CD-1 mice (both sexes; individual weights 20 to 40 g) were dosed intraperitoneally with different doses of TRV 1067 (0, 3, 10, 30, and 100 mg/kg). DMSO (100%) was used as a vehicle. Animals had ad libitum access to rodent chow. Some animals were euthanized 2 hours after dosing on Day 1 and brains were harvested. Blood (0.15 mL) was collected 15 minutes after dosing and at sacrifice. The remaining animals were dosed once daily for 5 consecutive days. Blood samples were collected 15 minutes after dosing on Day 1. On Day 5, blood samples were collected 15 minutes and 2 hours after dosing and brains were harvested.
Standards were prepared in CD-1 mouse plasma containing sodium heparin as an anticoagulant and CD-1 mouse brain homogenate. An eight-point calibration curve was prepared at concentrations of 1000, 500, 100, 50, 10, 5, 1, and 0.5 ng/mL by serial dilution. Standard samples were treated identically to the study samples. Brain samples were homogenized with a Virsonic 100 ultrasonic homogenizer. Each brain sample was first weighed, and then an appropriate volume of 20:80 methanol:water was added to make a 4 mL/1 g sample. Samples were then homogenized on ice, and stored frozen until analysis. Plasma and brain homogenate samples were extracted via acetonitrile precipitation on a Tomtec Quadra 96-Model 320 liquid handling system in a 96-well plate format. A Perkin Elmer series 200 micropumps and LEAP Autosampler high-performance liquid chromatograph (HPLC) was used with a 0.2% formic acid/water/acetonitrile solvent system for separation purposes. The compound was quantitated using a PE Sciex API3000 mass spectrometer connected to the HPLC; negative polarity was used, with TRV 1067 analyzed using ion settings of 347.1 mass/charge ratio for the precursor and 212.1 for the product ions, respectively. Warfarin was used in negative polarity (307.1 precursor, 250.0 product) as an internal standard.

[2] = system: MDR1-MDCK cell monolayers; assay: Blood-brain barrier penetration potential using MDR1-MDCK cell monolayers; assay type: in vitro ADME; conditions: 5 μM, 120 min
Description: (§1) This assay is used to determine the blood-brain barrier (BBB) penetration potential of a test compound using MDR1-MDCK cell monolayers. Further details on this method may be found in Taub M E, et al., Functional assessment of multiple Pglycoprotein (P-gp) probe substrates: Influence of cell line and modulator concentration on P-gp activity. Drug Metab Dispos. 2005 November; 33(11): 1679-87 and Wang Q, et al., Evaluation of the MDR-MDCK cell line as a permeability screen for the blood-brain barrier. Int J. Pharm. 2005 Jan. 20; 288(2):349-59; each of which is hereby incorporated by reference. Test compound was formulated in 300 μL of DMSO at 10 mM and diluted to 5 μM in HBSSg with maximum DMSO concentration not greater than 1%. Confluent monolayers of MDR1-MDCK cells, 7 to 11 days old, were used. A receiver well, having apical and basolateral sides at pH 7.4, was used with 1% BSA in modified Hanks buffer (HBSSg). Two monolayers were dosed with test compound in each direction (N=2). Apical side dosing was used for A-B assessment and basolateral side was used for B-A assessment; taken together, this information provides a bidirectional permeability potential. Apical and basolateral sides were sampled at 120 minutes and concentrations of test compound were determined using an LC-MS/MS method with a minimum 4 point calibration curve. Apparent permeability (Papp) in both directions (A-B and B-A) was calculated, as was the efflux ratio (Papp B-A)/(Papp A-B).

[3] = biological target: T1, Aβ40 (Homo sapiens, UniProt P05067); assay: Thioflavin T (ThT) Aβ aggregation assay; assay type: biochemical; conditions: 20 μM Aβ40, 37 degrees C
T1 construct: pre-treated Aβ40 (40 μM in 20 mM Tris, pH 7.4)
Description: Aβ40 (1.0 mg) was pre-treated in a 1.5 mL microfuge tube with HFIP (1 mL) and sonicated for 20 min to disassemble any pre-formed Aβ aggregates. The HFIP was removed with a stream of argon and the Aβ dissolved in Tris base (5.8 mL, 20 mM, pH ˜10). The pH was adjusted to 7.4 with concentrated HCl (−10 μL) and the solution filtered using a syringe filter (0.2 μm) before being used.
The kinetic ThT assay for Aβ aggregation is similar to that of Chalifour et al (Chalifour et al, 2003, J. Biol. Chem. 278:34874-81). Briefly, pre-treated Aβ40 (40 μM in 20 mM Tris, pH 7.4), was diluted with an equal volume of 8 μM ThT in Tris (20 mM, pH 7.4, 300 mM NaCl). Aliquots of Aβ/ThT (200 μL) were added to wells of a black polystyrene 96-well plate, followed by 2 μL of a compound in DMSO (variable concentration), or DMSO alone (controls). Incubations were performed in triplicate and were taken to contain 20 μM Aβ, various concentration of compound in 20 mM Tris, pH 7.4, 150 mM NaCl, 1% DMSO. Plates were covered with clear polystyrene lids and incubated at 37 degrees C. in a Tecan Genios microplate reader. Fluorescence readings (λex=450 nm, λem=480 nm) were taken every 15 min., after first shaking at high intensity for 15 s and allowing to settle for 10 s before each reading. Active compounds attenuated the increase in fluorescence over time that occurred in controls.

[4] = Metabolic stability in mouse liver microsomes; assay type: in vitro ADME; conditions: 1 μM compound, 0.5 mg/mL microsomal protein, 1 mM NADPH
Description: This assay is used to determine the percent remaining and intrinsic clearance of a test compound incubated with pooled mouse liver microsomes in the presence of NADPH. Further details on this method may be found in Jeffrey P, et al., Utility of metabolic stability screening: comparison of in vitro and in vivo clearance. enobiotica. 2001 August-September; 31(8-9):591-8 and Lin J H, et al., Role of pharmacokinetics and metabolism in drug discovery and development. Pharmacol Rev. 1997; 49(4):403-49; each of which is hereby incorporated by reference. Test compound was formulated in 300 μL of DMSO at 10 mM and was diluted to 1 μM with final concentration of organic solvent <0.25% for the experiment. Pooled liver microsomes were prepared from male mice, with 1 mM NADPH. Test compound was incubated at 37 degrees Celsius in buffer containing 0.5 mg/mL microsomal protein; the reaction was initiated by adding cofactors and sampled at 0, 10, 20, 30, and 60 minutes. A positive control (5 μM testosterone) was incubated and initiated in parallel for quality control. Samples were analyzed using an LTQ-Orbitrap XL mass spectrometer; HRMS was used to determine the peak area response ratio (peak area corresponding to test compound or control divided by that of an analytical internal standard) without running a standard curve.
Results were reported for selected compounds in the table of Example 1, as % test compound remaining after 60 minutes. Compounds which have less than about 5% remaining are not considered to be metabolically stable in mouse liver microsomes, while compounds with more than about 5% remaining are considered to be metabolically stable in mouse liver microsomes.

[5] = biological target: Tau441 (Homo sapiens, UniProt P10636); assay: Thioflavin S (ThS) tau aggregation assay; assay type: biochemical; conditions: FIG. 1; for inhibition at 20 µM: 20 μM compound; for IC50: read-out: tau aggregation IC50 (suggested by inhibition at 20 μM)
Description: Analogous to the method of Example 1, the ability of compounds to inhibit the aggregation of tau was performed by substituting […] with tau and Thioflavin T with Thioflavin S.

[6] = Blood-brain barrier penetration potential using MDR1-MDCK cell monolayers; assay type: in vitro ADME; conditions: dog
Description: as §1

[7] = biological target: alpha-synuclein (Homo sapiens, UniProt P37840); assay: alpha-synuclein aggregation assay (ThT, analogous to Example 1); assay type: biochemical; conditions: 10 μM compound
Description: Analogous to the method of Example 1, the ability of compounds to inhibit the aggregation of alpha-synuclein was performed by substituting Aβ with alpha-synuclein.

Sequence of Tau441 (P10636 1-441 isoform P10636-8): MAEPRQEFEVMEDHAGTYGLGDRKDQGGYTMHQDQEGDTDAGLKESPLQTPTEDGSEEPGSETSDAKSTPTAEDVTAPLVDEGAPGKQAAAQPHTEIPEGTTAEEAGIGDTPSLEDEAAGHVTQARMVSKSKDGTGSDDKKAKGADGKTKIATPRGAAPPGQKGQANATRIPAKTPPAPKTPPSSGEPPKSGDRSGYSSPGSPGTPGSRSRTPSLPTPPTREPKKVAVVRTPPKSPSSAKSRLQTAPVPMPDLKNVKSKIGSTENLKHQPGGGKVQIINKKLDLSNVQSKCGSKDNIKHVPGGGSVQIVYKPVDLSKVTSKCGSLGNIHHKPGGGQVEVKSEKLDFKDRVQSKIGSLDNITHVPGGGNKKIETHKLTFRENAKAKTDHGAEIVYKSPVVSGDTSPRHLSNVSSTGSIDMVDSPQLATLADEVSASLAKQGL
T1 sequence (P05067 672-711 limits assumed): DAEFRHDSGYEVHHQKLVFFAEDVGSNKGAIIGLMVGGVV

Structure (SMILES): O=C(O)c1cccc(-c2ccc([N+](=O)[O-])c(NCc3ccccc3)c2)c1 [TRV 1067, 3′-(benzylamino)-4′-nitrophenyl-3-carboxylic acid]
- blood-brain barrier crossing in vivo ([1]; CD-1 mice, 3-100 mg/kg i.p.): did not appreciably cross the blood-brain barrier
- Mean brain/plasma ratio ([1]; female CD-1 mice, Day 1, 3 mg/kg intraperitoneally): too low to determine
- Mean brain/plasma ratio ([1]; female CD-1 mice, Day 1, 100 mg/kg intraperitoneally): 0.051
- maximum brain/plasma ratio ([1]; female CD-1 mice): 0.067
- Mean brain/plasma ratio ([1]; male CD-1 mice, Day 1, 3 mg/kg intraperitoneally): too low to determine
- Mean brain/plasma ratio ([1]; male CD-1 mice, Day 1, 100 mg/kg intraperitoneally): 0.168
- maximum brain/plasma ratio ([1]; male CD-1 mice): 0.256
- Efflux ratio (Papp B-A)/(Papp A-B) [2]: 1.8
- Papp A-B × 10^−6 cm/s ([2]; apical dosing, pH 7.4): 42.1 10^−6 cm/s
- Papp B-A × 10^−6 cm/s ([2]; basolateral dosing, pH 7.4): 74.9 10^−6 cm/s

Structure (SMILES): O=C(c1ccccc1)N1CCN(c2ccc(F)c(Nc3ccccc3)c2)CC1 [TRV 1095, (4-(4-fluoro-3-(phenylamino)phenyl)piperazin-1-yl)(phenyl)methanone]
- IC50 [3]: 15.9 ± 7.8 µM
- Stability in mouse liver microsomes (% test compound remaining after 60 min) [4]: <1.0%
- inhibition at 20 µM [5]: ~20%
- IC50 [5]: > 20 µM

Structure (SMILES): O=[N+]([O-])c1ccc(-c2cccc(-c3nnn[nH]3)c2)cc1NCc1ccccc1 [TRV 1120, N-benzyl-4-nitro-3′-(1H-tetrazol-5-yl)-[1,1′-biphenyl]-3-amine]
- IC50 [3]: 1.34 ± 0.22 µM
- Papp A→B at 120 min, 5 µM ([6]; MDCK-MDR1, apical dosing, pH 7.4, read-out: Papp A-B × 10^−6 cm/s): 38.3 ×10⁻⁶ cm/s
- Papp B→A at 120 min, 5 µM ([6]; MDCK-MDR1, basolateral dosing, pH 7.4, read-out: Papp B-A × 10^−6 cm/s): 47.4 ×10⁻⁶ cm/s
- efflux ratio at 120 min, 5 µM ([6]; MDCK-MDR1, pH 7.4, read-out: Efflux ratio (Papp B-A)/(Papp A-B)): 1.2
- inhibition of alpha-synuclein aggregation [7]: inhibit alpha-synuclein aggregation at 10 μM
- Stability in mouse liver microsomes (% test compound remaining after 60 min) [4]: 60%

Structure (SMILES): O=C(c1ccccc1)N1CCN(c2ccc(C(F)(F)F)c(N3CCCC3)c2)CC1 [TRV 1158, phenyl(4-(3-(pyrrolidin-1-yl)-4-(trifluoromethyl)phenyl)piperazin-1-yl)methanone]
- IC50 [3]: 42.02 ± 0.12 µM
- inhibition at 20 µM [5]: ~20%
- IC50 [5]: > 20 µM
